From ChEMBL document CHEMBL4145665, “Structure-Activity Relationship of Novel and Selective Biaryl-Chroman GPR40 AgoPAMs” (ACS Med Chem Lett, 2018)

What was measured:
Rattus norvegicus [1] = assay: Antidiabetic activity in Goto Kakizaki rats assessed as inhibition of blood glucose AUC at 3 mg/kg, po pretreated for 1 hr followed by dextrose challenge measured after 20 to 60 mins by OGTT method relative to control; type: functional
[2] = Intrinsic clearance in rhesus monkey hepatocytes; type: ADME, cell-based, Macaca mulatta, Hepatocyte; details: read-out: CLH
[3] = Tmax in Wistar rat at 750 mg/kg administered once daily for 4 days; type: ADME, organism-based; details: in vivo
Rattus norvegicus [4] = assay: Antidiabetic activity in po dosed Goto Kakizaki rats assessed as plasma concentration required for reduction in blood glucose excursion at MED pretreated for 1 hr followed by dextrose challenge measured 3 hrs post dose by OGTT; type: functional, organism-based
[5] = Oral bioavailability in Beagle dog at 2 mg/kg administered as single dose; type: ADME, organism-based, Canis lupus familiaris; details: in vivo
Bile salt export pump = Bile salt export pump (Homo sapiens, UniProt O95342); assay: Inhibition of human BSEP expressed in baculovirus infected Sf9 insect cell membrane vesicles assessed as reduction in ATP-dependent [3H]-taurocholic acid uptake; type: ADME
[6] = Volume of distribution at steady state in Wistar-Han rat at 1 mg/kg, iv or 2 mg/kg, po administered as single dose; type: ADME, organism-based; details: in vivo, read-out: Vdss
Rattus norvegicus [7] = assay: Toxicity in Wistar rat assessed as increase in liver weight at 200 to 750 mg/kg administered once daily for 4 days; type: organism-based; details: in vivo, 96 h
[8] = target: T1, Free fatty acid receptor 1 (Homo sapiens, UniProt O14842); assay: Agonist activity at recombinant human GPR40 expressed in HEK293 cells assessed as increase in IP1 accumulation measured after 60 mins by HTRF assay relative to AM-1638; type: functional, cell-based
[9] = Oral bioavailability in Wistar-Han rat at 2 mg/kg administered as single dose; type: ADME, organism-based; details: in vivo
[10] = Intrinsic clearance in Beagle dog hepatocytes; type: ADME, cell-based, Canis lupus familiaris, Hepatocyte; details: read-out: CLH
[11] = Fraction unbound in rhesus monkey plasma at 1 mg/kg, iv or 2 mg/kg, po administered as single dose; type: ADME, organism-based, Macaca mulatta
[12] = target: T1, Free fatty acid receptor 1; assay: Agonist activity at recombinant human GPR40 expressed in HEK293 cells assessed as increase in IP1 accumulation measured after 60 mins in presence of 100% human serum by HTRF assay; type: functional, cell-based
[13] = AUC (0 to 24 hrs) in Wistar rat at 200 mg/kg administered once daily for 4 days; type: ADME, organism-based; parameters: dose 200 mg/kg, time < 24 hr; details: in vivo
Rattus norvegicus [14] = assay: Antidiabetic activity in Goto Kakizaki rats assessed as inhibition of blood glucose AUC at 1 mg/kg, po pretreated for 1 hr followed by dextrose challenge measured after 20 to 60 mins by OGTT method relative to control; type: functional
[15] = Volume of distribution at steady state in Beagle dog at 1 mg/kg, iv or 2 mg/kg, po administered as single dose; type: ADME, organism-based, Canis lupus familiaris; details: in vivo, read-out: Vdss
[16] = Fraction unbound in Beagle dog plasma at 1 mg/kg, iv or 2 mg/kg, po administered as single dose; type: ADME, organism-based, Canis lupus familiaris
Rattus norvegicus [17] = assay: Antidiabetic activity in Goto Kakizaki rats assessed as inhibition of blood glucose AUC at 10 mg/kg, po pretreated for 1 hr followed by dextrose challenge measured after 20 to 60 mins by OGTT method relative to control; type: functional

T1 sequence (O14842 whole entry): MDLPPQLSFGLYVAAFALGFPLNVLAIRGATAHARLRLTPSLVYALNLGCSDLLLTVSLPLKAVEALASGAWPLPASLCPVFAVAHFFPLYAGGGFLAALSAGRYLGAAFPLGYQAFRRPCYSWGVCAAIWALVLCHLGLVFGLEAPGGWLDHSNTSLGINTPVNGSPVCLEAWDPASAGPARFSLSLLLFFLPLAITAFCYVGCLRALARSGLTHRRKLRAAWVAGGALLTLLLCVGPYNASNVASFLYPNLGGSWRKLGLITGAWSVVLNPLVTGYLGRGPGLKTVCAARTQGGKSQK
Sequence of Bile salt export pump (O95342 whole entry): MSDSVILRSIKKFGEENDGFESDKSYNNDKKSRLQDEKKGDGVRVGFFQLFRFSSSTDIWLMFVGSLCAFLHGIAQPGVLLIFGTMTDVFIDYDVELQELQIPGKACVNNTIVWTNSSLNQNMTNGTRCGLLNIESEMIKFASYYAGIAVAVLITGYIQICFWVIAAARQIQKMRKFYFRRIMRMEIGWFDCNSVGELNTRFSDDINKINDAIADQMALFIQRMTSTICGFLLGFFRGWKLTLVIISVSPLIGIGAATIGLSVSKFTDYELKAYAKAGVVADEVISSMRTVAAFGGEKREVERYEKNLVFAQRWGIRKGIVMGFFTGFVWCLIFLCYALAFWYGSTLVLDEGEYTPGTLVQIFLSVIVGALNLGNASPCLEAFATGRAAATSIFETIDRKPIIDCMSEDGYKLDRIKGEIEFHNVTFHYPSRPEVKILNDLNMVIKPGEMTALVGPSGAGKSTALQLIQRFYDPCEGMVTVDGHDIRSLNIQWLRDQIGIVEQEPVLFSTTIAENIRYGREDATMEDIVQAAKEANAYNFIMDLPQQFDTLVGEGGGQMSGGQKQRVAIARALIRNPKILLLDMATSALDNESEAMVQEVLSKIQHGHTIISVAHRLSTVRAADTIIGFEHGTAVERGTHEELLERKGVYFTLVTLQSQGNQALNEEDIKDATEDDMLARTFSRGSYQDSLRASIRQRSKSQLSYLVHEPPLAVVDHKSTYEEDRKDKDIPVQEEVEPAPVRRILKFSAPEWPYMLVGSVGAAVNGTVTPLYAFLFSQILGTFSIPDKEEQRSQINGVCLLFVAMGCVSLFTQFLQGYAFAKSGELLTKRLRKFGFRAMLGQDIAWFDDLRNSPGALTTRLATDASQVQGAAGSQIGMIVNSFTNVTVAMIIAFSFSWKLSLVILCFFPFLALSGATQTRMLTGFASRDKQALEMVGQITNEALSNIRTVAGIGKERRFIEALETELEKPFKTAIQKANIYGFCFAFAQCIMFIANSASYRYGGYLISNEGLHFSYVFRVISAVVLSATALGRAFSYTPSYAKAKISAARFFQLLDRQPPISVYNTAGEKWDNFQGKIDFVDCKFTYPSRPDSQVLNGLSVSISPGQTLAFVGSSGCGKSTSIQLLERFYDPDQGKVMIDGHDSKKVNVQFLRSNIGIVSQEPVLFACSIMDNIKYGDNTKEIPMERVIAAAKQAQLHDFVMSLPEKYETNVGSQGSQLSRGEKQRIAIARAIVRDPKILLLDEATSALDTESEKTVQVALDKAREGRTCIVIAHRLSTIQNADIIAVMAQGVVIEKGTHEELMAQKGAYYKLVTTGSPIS

Compound: COc1cc(-c2ccc([C@@H]3CCc4ccc([C@H](C5CC5)[C@H](C)C(=O)[O-])cc4O3)c(F)c2)ccn1.[Na+]
- inhibition in vivo at 3 mg/kg (Rattus norvegicus [1]): 108%
- CLint scaled [2]: 102 mL/min/kg
- Tmax [3]: 1 to 2 h
- Cp (Rattus norvegicus [4]): 4.9 µM
- bioavailability [5]: 79%
- IC50 (Bile salt export pump): 3500 nM
- Vd [6]: 0.48 L/kg
- Activity (Rattus norvegicus [7]): Non-Toxic
- max activation [8]: > 179%
- bioavailability [9]: 81%
- CLint scaled [10]: 126 mL/min/kg
- fraction unbound [11]: 0.00071
- EC50 [12]: 35 nM
- AUC at 24 h [13]: 2310 µM·h
- inhibition in vivo at 1 mg/kg (Rattus norvegicus [14]): 95%
- Vd [15]: 0.45 L/kg
- fraction unbound [16]: 0.015
- inhibition in vivo at 10 mg/kg (Rattus norvegicus [17]): 118%
